Measured values: US6440967B1, “Combination of a GABAA alpha 5 inverse agonist and COX-2 inhibitor, NSAID, estrogen or vitamin E” (Merck & Co., Inc., priority 1998, dated 2002)

Structure (SMILES): Cc1cc(-c2nnc3c4ccccc4c(OCc4cccc(Br)n4)nn23)no1 [Reference Example 2, 6-(6-Bromopyridin-2-yl)methyloxy-3-(5-methylisoxazol-3-yl)-1,2,4-triazolo[3,4-a]phthalazine]
- melting point: 247.5 to 249 °C
